{
  "source": "patent US20240239786A1",
  "about": "“COMPOSITIONS AND METHODS FOR THE TREATMENT AND PREVENTION OF CANCER” (Yale University, priority 2021, published 2024)",
  "key": {"[1]": {"tested_on": "MDA-MB231 breast cancer cells", "assay": "Clonogenic assay, MDA-MB231", "format": "cell-based", "settings": "DB4 at 3 μM, 14 days", "protocol": "Cells were plated for 24 hr, pre-treated with DB4 for 1 hr, and then treated with various concentrations of olaparib for 14 days. Colonies were stained and determined for clonogenic survival.\nTo further substantiate the effectiveness of DB4 and mitigate the issue of off-target effects with a higher concentration range of drugs used in the MTS cytotoxicity assay, clonogenic assays were carried out to determine the long-term survival of cells in response to treatments.\nThe assay was conducted as described previously (Lin Z P et al., 2014, Molecular Cancer Res, 12:381-393). Cells were plated at various densities in 6-well plates in triplicate. After 24 hr of incubation, cells were treated continuously with various concentrations of olaparib, DB4, or both drugs in combination. After 12-14 days, colonies were fixed/stained with crystal violet solution and counted to determine the percentage of survival using a GelDoc imaging system with QuantityOne software (Bio-Rad, Hercules, CA)."}, "[2]": {"assay": "Chemical stability of DB4: potency after pre-incubation in cell-free medium (EdU readout)", "format": "physicochemical", "settings": "pre-incubated in cell-free medium at 37° C. up to 72 hr; PEO4 cells", "protocol": "DB4 remained mostly active and intact after 72 hr in the culture medium. The dose response curve of DB4 in DNA synthesis inhibition in PEO4 cells was generated as determined by EdU flow cytometric analysis. […] PEO4 cells were treated with these media for 24 hr. The level of DNA synthesis inhibition was determined to interpolate and calculate % DB4 remaining compared with the control at 0 hr. FIG. 5B depicts representative results for remaining DB4 after DB4 (MW=496.1) was added to the culture medium at 50 μM for 0 hr, 24 hr, 48 hr, or 72 hr at 37° C. FIG. 5C depicts representative mass spectrum obtained from mass spectrometry that was run to detect the level of the 496.13 ion at 0 hr. FIG. 5D depicts representative mass spectrum obtained from mass spectrometry that was run to detect the level of the 496.13 ion at 72 hr.\nTo ensure that DB4 remained chemically stable, the time course study was performed by determining the potency of DB4 following a pre-incubation in the cell-free medium at 37° C. for up to 72 hr. Cells were treated for 24 hr with the medium containing pre-incubated DB4 and DNA synthesis was determined by the EdU incorporation assay."}, "[3]": {"tested_on": "PEO1 cells", "assay": "MTS cytotoxicity assay, sensitization to olaparib, PEO1", "format": "cell-based", "settings": "30 μM, olaparib 72 hr", "protocol": "Cells were pre-treated with 30 μM DB4 for 1 hr and then treated with various concentrations of olaparib for 72 hr. Cell survival was determined by MTS cytotoxicity assay. Data are means±SD (N=3-4). […] EOB calculation was used to quantify the synergy of the combination of DB4 and various concentrations of olaparib in PEO1 or PEO4 cells as shown in FIG. 8A. EOB>0, synergism; EOB=0, additivity; EOB<0, antagonism. […] Cells were pre-treated with 30 μM DB4-F for 1 hr and then treated with various concentrations of olaparib for 72 hr. Cell survival was determined by MTS cytotoxicity assay. Data are means±SD (N=3-4). […] EOB calculation was used to quantify the synergy of the combination of DB4-F and various concentrations of olaparib in PEO1 or PEO4 cells as shown in FIG. 8B. EOB>0, synergism; EOB=0, additivity; EOB<0, antagonism. […] Cell survival was determined by MTS cytotoxicity assay. […] Caspase 3/7 activity was expressed as RLU per μg/μl protein. […] Caspase 3/7 activity was expressed as RLU per μg/μl protein. […] Cells were treated and caspase 3/7 activity was measured as described in FIG. 8G and FIG. 8H.\nIt was also examined whether DB4 sensitized BRCA-wild type EOC cells to a PARP inhibitor. BRCA2-mutated PEO1 and BRCA2-wild type PEO4 cells were treated with DB4 at 30 μM in combination with various concentrations of olaparib and cell survival was determined. […]"}},
  "data": [
    {"smiles": "C=CCn1c(SCc2cccc(Cl)c2)nnc1C1CCN(Cc2nc3ccccc3s2)CC1", "note": "[DB4, 2-[(4-{4-allyl-5-[(3-chlorobenzyl)thio]-4H-1,2,4-triazol-3-yl}-1-piperidinyl)methyl]-1,3-benzothiazole]", "values": [
      {"measurement": "clonogenic survival in the presence of olaparib", "setting": "[1]", "result": "effectively reduced the clonogenic survival"},
      {"measurement": "activity to inhibit DNA synthesis after pre-incubation", "setting": "[2]", "result": "more than 82%"},
      {"measurement": "sensitization to olaparib (cell survival)", "setting": "[3]", "result": "minimal effects"}
    ]}
  ]
}
